Holding throughout (type): cell-based
The test system of assay [1] is HCC827 cells (EGFR Exon19 del, non-small cell lung cancer cells). The assay can be described thus: Cell viability assay (WST/CCK8), HCC827 cells. Particulars: Homo sapiens, HCC827, 72 h, 72 hours, read-out: IC50 (half inhibitory concentration). The procedure, abridged:
(§1)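 Plated 3 000 cells/well in complete RPMI1640 the day before dosing; controls were DMSO (negative) and EGFR TKIs (positive).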

Assay [2] concerns PC9 cells (EGFR Exon 19 del, non-small cell lung cancer cells). Briefly: Cell viability assay (WST/CCK8), PC9 cells. The conditions noted are these: Homo sapiens, PC-9, 72 hours, read-out: IC50 (half inhibitory concentration). In outline:
as §1

The test system of assay [3] is H1975 (EGFR T790M+L858R mutation, non-small cell lung cancer cell line). Briefly: Cell viability assay (WST/CCK8), H1975 cells. The conditions noted are these: Homo sapiens, NCI-H1975, read-out: IC50 (half inhibitory concentration). From the text:
(§2) The cell lines with abnormal EGFR expression used are as follows: • HCC827 cells (EGFR Exon19 del, non-small cell lung cancer cells); • PC9 cells (EGFR Exon 19 del, non-small cell lung cancer cells); • PC9BracA1 (EGFR Exon 19 del+T790M, non-small cell lung cancer cells) • H1975 (EGFR Exon T790M+L858R mutation, non-small cell lung cancer cell line) • BT474 cells (HER2 positive breast cancer cells)
(§3) All of the half inhibitory concentrations (IC50) of these compounds of the present invention were determined with WST reagent from Fuyuan Biotec Company. The specific experiment procedures are as follows: Cancer cells were planted in 96-well-plate at the density of 3 000 cells per well with 100 μL RPMI1640 completed culture medium. In the next day, compounds with indicated concentrations were added to the cells, DMSO was used as the negative control and the EGFR TKIs were used to treat cells as the positive groups. After 72 hours drug treatment, cell viability was measured by using the WST reagent following the instructions.

Assay [4] deals with PC9BracA1 (EGFR Exon 19 del+T790M, non-small cell lung cancer cells). Briefly: Cell viability assay (WST/CCK8), PC9Brac1 cells. Particulars: read-out: IC50 (half inhibitory concentration).
Source text: as §2, §3

The test system of assay [5] is BT474 cells (HER2 positive breast cancer cells). Briefly: Cell viability assay (CCK8), BT474 cells. The conditions noted are these: Homo sapiens, BT-474, Table 10, BT474, 72 hours, read-out: IC50 (half inhibitory concentration).
Source text: as §2
as §3, with “instructions. The growth inhibition curve of the compounds on cells were plotted by Prism GraphPad, and the compounds IC50 calculated from it.” for “instructions.”
The cell viability assays were taken to determine the anti-tumor activity of these indicated compounds in BT474 cells, which can overexpress HER2 protein. The cells were treated with the gradient concentration of these compounds (the maximum concentration: 10 μM; 3-fold dilution ratio, 10 concentration gradients) for 72 hours and then incubated with the CCK8 reagent to determine the cell viability.

Where [6] appears, read: Table 8, osimertinib-based compounds, HCC827, WST.
[7] abbreviates: Table 8, osimertinib-based compounds, PC9, WST.
[8] abbreviates: Table 8, osimertinib-based compounds, H1975, 72 hours, WST.
Setting [9] is: Table 8, osimertinib-based compounds, Pc9Brc1, 72 hours, WST.
[10] abbreviates: HCC827 (Exon19 Del), WST (CCK8).
Setting [11] is: PC9Brac1 (Ex19del + T790M), 72 hours, WST.
Setting [12] is: Table 6, canertinib-based compounds, HCC827 (Exon19 Del), WST.
[13] abbreviates: Table 6, canertinib-based compounds, PC9 (Exon19 Del), WST.
Setting [14] is: Table 7, canertinib-based compounds, H1975 (L858R + T790M).

Structures are written as SMILES. pIC50: −log10 of the molar value. Read-outs that look alike come from different tables or passages of the source.

As for `C=CC(=O)Nc1cc(Nc2nccc(-c3cn(C)c4ccccc34)n2)c(OC)cc1N(C)CCN(C)CCCSc1cccc2c1CN(C1CCC(=O)NC1=O)C2=O` (stereo not shown) [SIAIS337079, N-(2-((2-((3-((2-(2,6-dioxopiperidin-3-yl)-1-oxoisoindolin-4-yl)thio)propyl)(methyl)amino)ethyl)(methyl)amino)-4-methoxy-5-((4-(1-methyl-1H-indol-3-yl)pyrimidin-2-yl)amino)phenyl)acrylamide], the pIC50 in assay [1] (setting [6]) was 6.06; in assay [2] (setting [7]), 6.43; in assay [3] (setting [8]), 7.15; in assay [4] (setting [9]), 6.44.

Consider `COc1cc2ncnc(Nc3ccc(F)c(Cl)c3)c2cc1NC(=O)/C=C/CN1CCC(NC(=O)CCCCCNc2cccc3c2C(=O)N(C2CCC(=O)NC2=O)C3=O)CC1` (stereo not shown) [SIAIS249084, (E)-N-(1-(4-((4-((3-chloro-4-fluorophenyl)amino)-7-methoxyquinazolin-6-yl)amino)-4-oxobut-2-en-1-yl)piperidin-4-yl)-6-((2-(2,6-dioxopiperidin-3-yl)-1,3-dioxoisoindolin-4-yl)amino)hexanamide], for which the pIC50 was 8.52 in assay [1] (setting [10]); 9.22 in assay [2] (PC9 (Exon19 Del), WST (CCK8)); 6.36 in assay [4] (setting [11]); 8.22 in assay [5].

Turning to `C=CC(=O)Nc1cc(Nc2nccc(-c3cn(C)c4ccccc34)n2)c(OC)cc1N(C)CCN(C)CCCCCCSc1cccc2c1CN(C1CCC(=O)NC1=O)C2=O` (stereo not shown) [SIAIS337082, N-(2-((2-((6-((2-(2,6-dioxopiperidin-3-yl)-1-oxoisoindolin-4-yl)thio)hexyl)(methyl)amino)ethyl)(methyl)amino)-4-methoxy-5-((4-(1-methyl-1H-indol-3-yl)pyrimidin-2-yl)amino)phenyl)acrylamide], the pIC50 was 8.10 in assay [1] (setting [6]), 7.05 in assay [2] (setting [7]), 7.26 in assay [3] (setting [8]) and 6.66 in assay [4] (setting [9]).

For the molecule `C=CC(=O)Nc1cc(Nc2nccc(-c3cn(C)c4ccccc34)n2)c(OC)cc1N(C)CCN(C)C(=O)CCCCCSc1cccc2c1CN(C1CCC(=O)NC1=O)C2=O` (stereo not shown) [SIAIS337056, N-(2-((2-acrylamido-5-methoxy-4-((4-(1-methyl-1H-indol-3-yl)pyrimidin-2-yl)amino)phenyl)(methyl)amino)ethyl)-6-((2-(2,6-dioxopiperidin-3-yl)-1-oxoisoindolin-4-yl)thio)-N-methylhexanamide], the pIC50 in assay [1] (setting [6]) was 6.94; in assay [4] (setting [9]), 6.01.

In the case of `C=CC(=O)Nc1cc(Nc2nccc(-c3cn(C)c4ccccc34)n2)c(OC)cc1N(C)CCN(C)CCCCCCCCCCCSc1cccc2c1CN(C1CCC(=O)NC1=O)C2=O` (stereo not shown) [SIAIS337087, N-(2-((2-((11-((2-(2,6-dioxopiperidin-3-yl)-1-oxoisoindolin-4-yl)thio)undecyl)(methyl)amino)ethyl)(methyl)amino)-4-methoxy-5-((4-(1-methyl-1H-indol-3-yl)pyrimidin-2-yl)amino)phenyl)acrylamide], the pIC50 in assay [1] (setting [6]) was 7.04; in assay [2] (setting [7]), 6.49; in assay [3] (setting [8]) it was 6.62; in assay [4] (setting [9]) it was 6.22.

For `COc1cc2ncnc(Nc3ccc(F)c(Cl)c3)c2cc1NC(=O)/C=C/CN1CCC(N2CCNCC2)CC1` [SIAIS262021, (E)-N-(4-((3-chloro-4-fluorophenyl)amino)-7-methoxyquinazolin-6-yl)-4-(4-(piperazin-1-yl)piperidin-1-yl)but-2-enamide], the pIC50 in assay [4] (setting [11]) was 6.02; in assay [5], 7.49.

On to `C=CC(=O)Nc1cc(Nc2nccc(-c3cn(C)c4ccccc34)n2)c(OC)cc1N(C)CCNC` [SIAIS337051, N-(4-methoxy-2-(methyl(2-(methylamino)ethyl)amino)-5-((4-(1-methyl-1H-indol-3-yl)pyrimidin-2-yl)amino)phenyl)acrylamide], for which the pIC50 in assay [1] (setting [6]) was 9.00; in assay [2] (setting [7]) it was 8.70; in assay [3] (setting [8]), 9.00; in assay [4] (setting [9]) it was 6.32.

With `C=CC(=O)Nc1cc2c(Nc3ccc(F)c(Cl)c3)ncnc2cc1OCCCN1CCN(C(=O)CCOCCOCCNc2cccc3c2C(=O)N(C2CCC(=O)NC2=O)C3=O)CC1` (stereo not shown) [SIAIS262127, N-(4-((3-chloro-4-fluorophenyl)amino)-7-(3-(4-(3-(2-(2-((2-(2,6-dioxopiperidin-3-yl)-1,3-dioxoisoindolin-4-yl)amino)ethoxy)ethoxy)propanoyl)piperazin-1-yl)propoxy)quinazolin-6-yl)acrylamide], the pIC50 was 8.19 in assay [1] (setting [12]); 8.01 in assay [2] (setting [13]); 6.33 in assay [3] (setting [14]); 6.37 in assay [4] (Table 7, canertinib-based compounds, PC9Brca1 (Ex19del + T790M)).

For the molecule `C=CC(=O)Nc1cc(Nc2nccc(-c3cn(C)c4ccccc34)n2)c(OC)cc1N(C)CCN(C)C(=O)COCCSc1cccc2c1CN(C1CCC(=O)NC1=O)C2=O` (stereo not shown) [SIAIS337074, N-(2-((2-(2-(2-((2-(2,6-dioxopiperidin-3-yl)-1-oxoisoindolin-4-yl)thio)ethoxy)-N-methylacetamido)ethyl)(methyl)amino)-4-methoxy-5-((4-(1-methyl-1H-indol-3-yl)pyrimidin-2-yl)amino)phenyl)acrylamide], the pIC50 in assay [1] (setting [6]) is 8.52; in assay [2] (setting [7]) it was 7.04; in assay [3] (setting [8]) it was 6.84; in assay [4] (setting [9]) it was 6.62.

Consider `COc1cc2ncnc(Nc3ccc(F)c(Cl)c3)c2cc1NC(=O)/C=C/CN1CCC(NC(=O)CCCNc2cccc3c2C(=O)N(C2CCC(=O)NC2=O)C3=O)CC1` (stereo not shown) [SIAIS249083, (E)-N-(4-((3-chloro-4-fluorophenyl)amino)-7-methoxyquinazolin-6-yl)-4-(4-(4-((2-(2,6-dioxopiperidin-3-yl)-1,3-dioxoisoindolin-4-yl)amino)butanamido)piperidin-1-yl)but-2-enamide], for which the pIC50 in assay [1] (setting [10]) was 8.30; in assay [2] (PC9 (Exon19 Del), WST (CCK8)), 8.54; in assay [4] (setting [11]), 6.36; in assay [5], 7.19.

On to `C=CC(=O)Nc1cc(Nc2nccc(-c3cn(C)c4ccccc34)n2)c(OC)cc1N(C)CCN(C)CCCCCCCCSc1cccc2c1CN(C1CCC(=O)NC1=O)C2=O` (stereo not shown) [SIAIS337084, N-(2-((2-((8-((2-(2,6-dioxopiperidin-3-yl)-1-oxoisoindolin-4-yl)thio)octyl)(methyl)amino)ethyl)(methyl)amino)-4-methoxy-5-((4-(1-methyl-1H-indol-3-yl)pyrimidin-2-yl)amino)phenyl)acrylamide], for which the pIC50 in assay [1] (setting [6]) was 6.45; in assay [2] (setting [7]), 6.57; in assay [4] (setting [9]) it was 6.16.

As for `C=CC(=O)Nc1cc2c(Nc3ccc(F)c(Cl)c3)ncnc2cc1OCCCN1CCC(N2CCN(C(=O)CCCCSc3cccc4c3CN(C3CCC(=O)NC3=O)C4=O)CC2)CC1` (stereo not shown) [SIAIS262175, N-(4-((3-chloro-4-fluorophenyl)amino)-7-(3-(4-(4-(5-((2-(2,6-dioxopiperidin-3-yl)-1-oxoisoindolin-4-yl)thio)pentanoyl)piperazin-1-yl)piperidin-1-yl)propoxy)quinazolin-6-yl)acrylamide], the pIC50 in assay [1] (setting [12]) was 8.17; in assay [2] (setting [13]) it was 7.77; in assay [3] (setting [14]) it was 6.37; in assay [5], 7.65.

The record behind these values is patent US12564638B2 (SHANGHAITECH UNIVERSITY, priority 2019, dated 2026).
